Measurements reported in US6346613B1, “Composition and method for enhancing paracellular transport across cell layers” (Elan Corporation, plc, priority 1997, dated 2002).
Several values for one entry are separate records, joined by “and”; a condition that tells them apart may be missing. Equal values may be shown once.

Tests used:
Caco-2 monolayers = assay: Transepithelial electrical resistance (TER) of Caco-2 monolayers on snapwells; assay type: cell-based, Human; design: unit not given beside the values; conditions: Experiment 1, per snapwell, treatment with lipofectamine + oligonucleotide
Protocol: All solutions were warmed to 37° C. before use.

[1] = Experiment 1, [3H]-mannitol, 90 minutes, Caco-2

Protocol for polarized Caco-2 cells: Human intestinal Caco-2 cells were grown using standard techniques well known to those skilled in the art. The cells were seeded onto polycarbonate filters (Costar Snapwells; diameter=12 mm; area=1.13 cm^2; pore size=0.4m) at a density of 0.5×10^6 cm^2. For antisense oligonucleotide studies, 18-25 day old cell monolayers were used which have transepithelial electrical resistance (TER) measurements in the range 200-400 cm^2.
All incubations were at 37° C. in 5% CO2 atmosphere. All solutions were warmed to 37° C. before use. The following procedure was carried out once a day over three days. After reading the TER, the cells were washed once and incubated in a reduced serum medium (RSM; Opti-MEM 1 with GlutaMax 1; Gibco-BRL) for 30 minutes. Meanwhile, the lipofectamine-oligonucleotide complex was allowed to form at room temperature. Lipofectamine (20 μl/snapwell; Gibco BRL CN. 18324-012) was mixed with occludin antisense DNA oligonucleotide, with occludin scrambled oligonucleotide or with water control in RSM.
The lipofectin:oligonucleotide complex was added to the apical surface of the snapwells and the cells were incubated for 2 hours. The apical and basolateral media were then replaced with normal medium (except on day 4). After the 2 hour incubation on day 3, transepithelial flux of ^3H-mannitol was measured.
Caco-2 cells were washed once in buffered Hank's balanced salt solution (bHBSS; Gibco CN.14065-031; supplemented with 0.011M glucose, 15 mM HEPES acid [3.575 g/l; Sigma CN.H3375], 10 mM HEPES base [2.603 g/l; Sigma CN. H1016]) and were incubated 30 minutes. The apical reservoir bHBSS was replaced with 1 ml buffered HBSS containing 1 μCi/ml of the hydrophilic marker ^3H-mannitol (New England Biolabs). […] The samples were added to 4 ml scintillation fluid and radioactivity for each vial counted on a scintillation counter.
Fully differentiated Caco-2 monolayers were grown as in Example 1. […] On day 4, [^3H]-mannitol was applied to the apical domain and flux was determined by measuring the radioactivity (cpm) transferred to the basolateral reservoir over 90 minutes as in Example 3. […]

Substance	TER (Caco-2 monolayers; listed as Lipofectamine + Scrambled Antisense)	TER (Caco-2 monolayers; listed as Lipofectamine + Occludin Antisense)	increase in flux relative to no oligonucleotide (polarized Caco-2 cells; [1])	increase in flux relative to occludin scrambled oligonucleotide (polarized Caco-2 cells; [1])	mean increase in [3H]-mannitol flux relative to control scrambled sequence antisense DNA (polarized Caco-2 cells; Experiment 2 (FIG. 2), 500 μM, Caco-2 monolayers on snapwells)
5′ GCA AGT CAG GAC GTA GA 3′ (GCAAGTCAGGACGTAGA; chemistry not given here) [occludin scrambled oligonucleotide, reference compound]	1280 and 1700	–	–	–	–
5′ AAG AGG CCT GGA TGA CA 3′ (antisense AAGAGGCCTGGATGACA; chemistry not given here) [occludin antisense oligonucleotide]	–	1260 and 1410	1.6 fold	1.6 fold	2.2 fold
